Source: patent US11787809B2 (NIHON NOHYAKU CO., LTD., priority 2015, dated 2023)
Where two headings read alike, the source gives them in different places.

How the values were obtained:
Laodelphax striatella = assay: Insecticidal test on Laodelphax striatella (rice seedling dip); type: in vivo; settings: Laodelphax striatellus, 192 h, read-out: insecticidal effect (corrected mortality rate)
Text: Insecticidal Test on Laodelphax striatella
The oxime group-containing condensed heterocyclic compounds represented by the general formula (1) of the present invention or salts thereof were separately dispersed in water and diluted to 500 ppm, and rice plant seedlings (variety: Nihonbare) were dipped in the agrochemical dispersions for 30 seconds. After air-dried, each seedling was put into a separate glass test tube and inoculated with ten 3rd-instar larvae of Laodelphax striatella, and then the glass test tubes were capped with cotton plugs. At 8 days after the inoculation, the numbers of surviving larvae and dead larvae were counted, the corrected mortality rate was calculated according to the formula shown below, and the insecticidal effect was evaluated according to the criteria of Test Example 1. Corrected mortality rate (%)=100×(Survival rate in a non-treatment plot−Survival rate in a treatment plot)/Survival rate in a non-treatment plot [Math. 2]

Plutella xylostella = assay: Insecticidal test on Plutella xylostella (dip of Chinese cabbage seedlings with laid eggs); type: in vivo; settings: 144 h
Text: Insecticidal Test on Plutella xylostella
Adults of Plutella xylostella were released onto Chinese cabbage seedlings and allowed to lay eggs thereon. At 2 days after the release of the adults, the Chinese cabbage seedlings with laid eggs were dipped for about 30 seconds in agrochemical dispersions diluted to 500 ppm, each of which contained a different kind of oxime group-containing condensed heterocyclic compound represented by the general formula (1) of the present invention as an active ingredient. After air-dried, the seedlings were kept in a thermostatic chamber at 25° C. At 6 days after the dip treatment, the number of hatched larvae per plot was counted, the mortality rate was calculated according to the formula shown below, and the insecticidal effect was evaluated according to the criteria of Test Example 1. This test was conducted in triplicate using 10 adults of Plutella xylostella per plot. Corrected mortality rate (%)=100×(Number of hatched larvae in a non-treatment plot−Number of hatched larvae in a treatment plot)/Number of hatched larvae in a non-treatment plot [Math. 3]

[1] = 500 ppm, rice seedlings (Nihonbare) dipped 30 seconds, ten 3rd-instar larvae, 8 days after inoculation, criteria of Test Example 1
[2] = 500 ppm, Chinese cabbage seedlings with laid eggs dipped about 30 seconds, 25° C., 6 days after dip treatment, criteria of Test Example 1, read-out: insecticidal effect (corrected mortality rate, hatched larvae)

| SMILES | mortality at 500 ppm (Laodelphax striatella; [1]) | mortality at 500 ppm (Plutella xylostella; [2]) | mortality at 500 ppm (Laodelphax striatella; in Oryza sativa) | mortality at 500 ppm (Plutella xylostella; in Brassica rapa, read-out: insecticidal effect (corrected mortality rate, hatched larvae)) |
| --- | --- | --- | --- | --- |
| CCS(=O)(=O)c1cc(C=NO)cnc1-c1nc2cc(C(F)(F)F)cnc2n1C [Compound 2-3] | 100% | 100% |  |  |
| CCS(=O)(=O)c1cc(/C=N/OCC(F)(F)F)cnc1-c1nc2cc(SC(F)(F)F)ccc2o1 [Compound 4-12] | 100% | 100% |  |  |
| CCS(=O)(=O)c1cc(/C=N/O)cnc1-c1nc2cc(SC(F)(F)F)ccc2o1 [Compound 4-11] | 100% | 100% |  |  |
| CCS(=O)(=O)c1ccc(C=NO)nc1-c1nc2cc(C(F)(F)F)nnc2n1C [Compound 3-1] |  |  | 100% | 100% |
| CCS(=O)(=O)c1cc(C=NOCC(F)(F)F)cnc1-c1nc2cc(C(F)(F)F)cnc2n1C [Compound 2-33] | 100% | 100% |  |  |
| CCS(=O)(=O)c1ccc(C=NOCC(F)(F)F)nc1-c1nc2cc(C(F)(F)F)nnc2n1C [Compound 3-2] | 100% | 100% |  |  |
